Biological target: Immunoglobulin A1 protease autotransporter (Haemophilus influenzae (strain ATCC 51907 / DSM 11121 / KW20 / Rd), UniProt P44969)
Assay: Inhibition of Haemophilus influenzae Rd IGA1 protease expressed in Escherichia coli BL21(DE3) preincubated for 1 hr followed by substrate addition and measured after 2 hrs by sandwich ELISA

Immunoglobulin A1 protease autotransporter, sequence (P44969 26-1014 limits assumed): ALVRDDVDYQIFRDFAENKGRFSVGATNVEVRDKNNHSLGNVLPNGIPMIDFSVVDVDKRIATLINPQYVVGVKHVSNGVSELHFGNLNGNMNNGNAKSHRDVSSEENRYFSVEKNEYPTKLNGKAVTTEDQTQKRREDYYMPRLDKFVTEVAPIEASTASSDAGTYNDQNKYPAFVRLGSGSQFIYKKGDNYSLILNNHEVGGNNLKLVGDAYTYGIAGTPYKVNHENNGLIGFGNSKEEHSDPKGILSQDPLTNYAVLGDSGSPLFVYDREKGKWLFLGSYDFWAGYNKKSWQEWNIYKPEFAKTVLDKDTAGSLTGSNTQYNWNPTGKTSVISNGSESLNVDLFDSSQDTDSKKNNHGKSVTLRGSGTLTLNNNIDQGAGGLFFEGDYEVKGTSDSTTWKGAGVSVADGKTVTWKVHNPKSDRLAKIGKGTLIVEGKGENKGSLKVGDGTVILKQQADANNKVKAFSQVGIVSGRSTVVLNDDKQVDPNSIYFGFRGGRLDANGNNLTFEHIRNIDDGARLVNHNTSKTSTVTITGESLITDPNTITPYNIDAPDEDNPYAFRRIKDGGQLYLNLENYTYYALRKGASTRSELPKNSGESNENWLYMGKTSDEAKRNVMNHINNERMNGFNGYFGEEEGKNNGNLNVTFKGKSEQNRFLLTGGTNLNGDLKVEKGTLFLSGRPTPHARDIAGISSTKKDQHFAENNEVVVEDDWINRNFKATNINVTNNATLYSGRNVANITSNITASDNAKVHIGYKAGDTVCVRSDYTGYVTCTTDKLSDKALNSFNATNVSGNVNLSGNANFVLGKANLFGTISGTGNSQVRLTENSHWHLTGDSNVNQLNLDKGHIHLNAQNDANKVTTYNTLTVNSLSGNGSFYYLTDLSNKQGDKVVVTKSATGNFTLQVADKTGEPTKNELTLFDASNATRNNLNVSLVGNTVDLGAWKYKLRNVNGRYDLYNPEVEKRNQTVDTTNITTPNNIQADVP

| IC50 [µM] | Structure (SMILES) |
| --- | --- |
| 3.7 | O=C(Oc1nsnc1N1CCCCC1)C1CCOCC1 |
| 5.9 | O=C(Oc1nsnc1N1CCOCC1)c1ccccc1 |
